# Data: PubChem BioAssay (NCI)
#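 How tested: cells in 96-well plates exposed to compound for 48 hours at five concentrations. TGI is the concentration that stops growth completely.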
# Assays:
# Experiment in all cases: NCI-60 cell line screen, 48 h
# [1] = system: SNB-78 CNS
# [2] = system: HT29 colon
# [3] = system: TK-10 renal
# [4] = system: NCI-H23 lung
# [5] = system: A498 renal
# [6] = system: DLD-1 colon
# [7] = system: MOLT-4 leukemia
# [8] = system: SN12C renal
# [9] = system: SNB-19 CNS
# [10] = system: HCC-2998 colon
# [11] = system: CAKI-1 renal
# [12] = system: OVCAR-3 ovarian
# [13] = system: HOP-62 NSCLC
# [14] = system: 786-0 renal
# [15] = system: KM20L2 colon
# [16] = system: XF 498 CNS
# [17] = system: SNB-75 CNS
# [18] = system: HL-60(TB) leukemia
# [19] = system: SF-539 CNS
# [20] = system: M14 melanoma
# [21] = system: SF-268 CNS
# [22] = system: KM12 colon
# [23] = system: EKVX NSCLC
# [24] = system: HOP-18 NSCLC
# [25] = system: SK-MEL-2 melanoma
# [26] = system: SR leukemia
# [27] = system: SF-295 CNS
# [28] = system: HCT-15 colon
# [29] = system: ACHN renal
# [30] = system: SK-MEL-5 melanoma
# [31] = system: MALME-3M melanoma
# [32] = system: RXF 393 renal
# [33] = system: NCI-H226 lung
# [34] = system: K-562 leukemia
# [35] = system: NCI-H460 lung
# [36] = system: M19-MEL melanoma
# [37] = system: RXF-631 renal
# [38] = system: UACC-62 melanoma
# [39] = system: SW-620 colon
# [40] = system: OVCAR-8 ovarian
# [41] = system: CCRF-CEM leukemia
# [42] = system: SK-OV-3 ovarian
# [43] = system: OVCAR-4 ovarian
# [44] = system: UO-31 renal
# [45] = system: NCI-H522 lung
# [46] = system: COLO 205 colon
# [47] = system: SK-MEL-28 melanoma
# [48] = system: LXFL 529 NSCLC
# [49] = system: OVCAR-5 ovarian
# [50] = system: U251 CNS
# [51] = system: DMS 273 small cell lung
# [52] = system: IGROV1 ovarian
# [53] = system: LOX IMVI melanoma
# [54] = system: A549 NSCLC
# [55] = system: UACC-257 melanoma
# [56] = system: HCT-116 colon
# [57] = system: HOP-92 NSCLC
# [58] = system: DMS 114 small cell lung
# [59] = system: RPMI-8226 leukemia
compound,measurement,setting,value
O=C(/C=C/c1ccccc1O)c1cccs1,TGI,[1],> 100 µM
same,TGI,[2],> 100 µM
same,TGI,[3],> 100 µM
same,TGI,[4],> 100 µM
same,TGI,[5],45.5 µM
same,TGI,[6],> 100 µM
same,TGI,[7],> 100 µM
same,TGI,[8],> 100 µM
same,TGI,[9],> 100 µM
same,TGI,[10],> 100 µM
same,TGI,[11],> 100 µM
same,TGI,[12],> 100 µM
same,TGI,[13],> 100 µM
same,TGI,[14],> 100 µM
same,TGI,[15],> 100 µM
same,TGI,[16],> 100 µM
same,TGI,[17],> 100 µM
same,TGI,[18],> 100 µM
same,TGI,[19],> 100 µM
same,TGI,[20],> 100 µM
same,TGI,[21],> 100 µM
same,TGI,[22],> 100 µM
same,TGI,[23],> 100 µM
same,TGI,[24],> 100 µM
same,TGI,[25],> 100 µM
same,TGI,[26],> 100 µM
same,TGI,[27],> 100 µM
same,TGI,[28],> 100 µM
same,TGI,[29],> 100 µM
same,TGI,[30],> 100 µM
same,TGI,[31],> 100 µM
same,TGI,[32],> 100 µM
same,TGI,[33],> 100 µM
same,TGI,[34],> 100 µM
same,TGI,[35],> 100 µM
same,TGI,[36],> 100 µM
same,TGI,[37],> 100 µM
same,TGI,[38],> 100 µM
same,TGI,[39],> 100 µM
same,TGI,[40],> 100 µM
same,TGI,[41],> 100 µM
same,TGI,[42],> 100 µM
same,TGI,[43],> 100 µM
same,TGI,[44],> 100 µM
same,TGI,[45],> 100 µM
same,TGI,[46],> 100 µM
same,TGI,[47],> 100 µM
same,TGI,[48],> 100 µM
same,TGI,[49],> 100 µM
same,TGI,[50],> 100 µM
same,TGI,[51],> 100 µM
same,TGI,[52],> 100 µM
same,TGI,[53],> 100 µM
same,TGI,[54],> 100 µM
same,TGI,[55],> 100 µM
same,TGI,[56],> 100 µM
[O-][n+]1c2cc3c(cc2[n+]([O-])c2c(O)cccc21)CN(CCN1CCOCC1)C3,TGI,[57],32.3 µM
same,TGI,[58],25.4 µM
same,TGI,[1],> 100 µM
same,TGI,[59],71.7 µM
same,TGI,[2],50.2 µM
same,TGI,[3],> 100 µM
same,TGI,[4],71 µM
same,TGI,[5],> 100 µM
same,TGI,[7],26.9 µM
same,TGI,[8],> 100 µM
same,TGI,[9],> 100 µM
same,TGI,[11],> 100 µM
same,TGI,[12],50.8 µM
same,TGI,[14],> 100 µM
same,TGI,[15],> 100 µM
same,TGI,[16],33.5 µM
same,TGI,[17],> 100 µM
same,TGI,[18],36.8 µM
same,TGI,[20],> 100 µM
same,TGI,[21],60.6 µM
same,TGI,[22],31.8 µM
same,TGI,[23],68 µM
same,TGI,[24],> 100 µM
same,TGI,[25],53 µM
same,TGI,[26],7.83 µM
same,TGI,[27],40 µM
same,TGI,[28],> 100 µM
same,TGI,[29],66.9 µM
same,TGI,[30],> 100 µM
same,TGI,[31],> 100 µM
same,TGI,[32],42.4 µM
same,TGI,[33],> 100 µM
same,TGI,[34],54.2 µM
same,TGI,[35],28.1 µM
same,TGI,[36],49 µM
same,TGI,[37],> 100 µM
same,TGI,[38],74.7 µM
same,TGI,[40],32.5 µM
same,TGI,[41],47 µM
same,TGI,[42],58.9 µM
same,TGI,[43],> 100 µM
same,TGI,[44],40.9 µM
same,TGI,[45],19 µM
same,TGI,[46],30.5 µM
same,TGI,[47],> 100 µM
same,TGI,[48],62.1 µM
same,TGI,[49],> 100 µM
same,TGI,[50],28.7 µM
same,TGI,[51],> 100 µM
same,TGI,[52],39.5 µM
same,TGI,[54],> 100 µM
same,TGI,[55],87.2 µM
same,TGI,[56],33.2 µM
NC(N)=NS(=O)(=O)c1ccc(NC(=O)c2cccc3c(Nc4ccc(S(=O)(=O)N=C(N)N)cc4)c4ccccc4nc23)cc1,TGI,[57],> 100 µM
same,TGI,[58],> 100 µM
same,TGI,[1],> 100 µM
same,TGI,[59],> 100 µM
same,TGI,[2],> 100 µM
same,TGI,[3],> 100 µM
same,TGI,[4],> 100 µM
same,TGI,[5],> 100 µM
same,TGI,[6],> 100 µM
same,TGI,[7],> 100 µM
same,TGI,[8],> 100 µM
same,TGI,[9],> 100 µM
same,TGI,[12],> 100 µM
same,TGI,[13],> 100 µM
same,TGI,[14],> 100 µM
same,TGI,[15],> 100 µM
same,TGI,[16],> 100 µM
same,TGI,[17],81.5 µM
same,TGI,[18],> 100 µM
same,TGI,[19],> 100 µM
same,TGI,[20],> 100 µM
same,TGI,[21],> 100 µM
same,TGI,[22],> 100 µM
same,TGI,[23],> 100 µM
same,TGI,[24],> 100 µM
same,TGI,[25],> 100 µM
same,TGI,[27],> 100 µM
same,TGI,[28],> 100 µM
same,TGI,[29],> 100 µM
same,TGI,[30],> 100 µM
same,TGI,[31],> 100 µM
same,TGI,[32],> 100 µM
same,TGI,[34],> 100 µM
same,TGI,[35],> 100 µM
same,TGI,[36],> 100 µM
same,TGI,[37],> 100 µM
same,TGI,[38],> 100 µM
same,TGI,[39],> 100 µM
same,TGI,[40],> 100 µM
same,TGI,[41],> 100 µM
same,TGI,[42],> 100 µM
same,TGI,[43],> 100 µM
same,TGI,[44],> 100 µM
same,TGI,[45],> 100 µM
same,TGI,[46],> 100 µM
same,TGI,[47],> 100 µM
same,TGI,[48],> 100 µM
same,TGI,[49],> 100 µM
same,TGI,[50],> 100 µM
same,TGI,[51],> 100 µM
same,TGI,[52],> 100 µM
same,TGI,[53],> 100 µM
same,TGI,[54],> 100 µM
same,TGI,[55],> 100 µM
same,TGI,[56],> 100 µM
